One data set has as its system BV2 cells. The data set can be described thus: XTT viability assay. Format: cell-based, Murine. The note with it: alone or in combination with α-synuclein aggregates; data not shown. The procedure: To test if the α-synuclein, the galectin-3 inhibitor, or both, are toxic for BV2 cells in different conditions, we used an in vitro viability assay kit based on a XTT (Sigma-Aldrich) reduction spectrophotometric method to estimate the mitochondrial activity in living cells. The assay was performed following manufacturer's protocol provided in the kit. The absorbance was measured by spectrophotometrically using a plate reader.

Data set [1] deals with BV2 microglial cells. The data set can be described thus: iNOS expression by western blot in BV2 microglia activated with α-synuclein. Format: cell-based, Murine. The note with it: for down regulation of iNOS expression: α-synuclein aggregates 20 μM; for inhibition of iNOS expression induced by α-synuclein monomers: inhibitor 30 min pre-treatment, monomers 20 μM. The procedure: Murine (microglial cell line (BV2 cells)) was culture in Dulbecco's modified Eagle's medium (DMEM) containing 10% Fetal Bovine Serum (Invitrogen) with 100 U/ml Penicillin and 100 U/ml Streptomycin (Invitrogen) in 5% CO2 atmosphere at 37° C. One day before BV2 were seeded at a concentration of 2×10^5 cells/well in 24 wells plate (Nunc). The BV2 cells were treated with α-synuclein monomers and aggregates at different concentrations: 5 μM, 10 μM and 20 μM. The cells were also treated with LPS (Sigma-Aldrich) at 1 μg/ml. All the treatments were conducted for 12 h.
We used a small inhibitory molecule for galectin-3 activity, bis-{3-deoxy-3-[4-(3-fluorophenyl)-1H-1,2,3-triazol-1-yl]-β-D-galactopyranosyl} sulfane (Mackinnon et al., 2012, Volarevic et al., 2012, Saksida et al., 2013). This inhibitor was used as pre-treatment for 30 min throughout the study, except in the phagocytic assay when we used 12 h incubation time. To test the inhibitor ability alter α-synuclein-induced inflammation, we tested different concentration, from 5 μM to 100 μM. After 30 min pre-treatment with the inhibitor, we add the treatments of α-synuclein monomers or aggregates of at different concentration for 12 h. The inhibitor is dilute in DMSO (40%) and distilled water (60%) in a stock concentration of 4 mM.
Transfection of BV2 cells was carried out using Lipofectamine 2000 (Invitrogen) following the manufacturer's recommendation. Non-targeting control and galectin-3 siRNAs were obtained from Dharmacon. (SMART pool) siRNA sequence used: siLGal3S3(1) J-041097-09 GAGAGAUACCCAUCGCUUU (SEQ ID NO:4), siLGal3S3(2) J-041097-10 ACUUCAAGGUUGCGGUCAA (SEQ ID NO:5), siLGal3S3(3) J-041097-11 ACAGUGAAACCCAACGCAA (SEQ ID NO:6), siLGal3S3(4) J-041097-12 GGAUGAAGAACCUCCGGGA (SEQ ID NO:7).
Western blot was performed for iNOS and galectin-3 protein levels for BV2 microglial cell or for primary microglial cells. Briefly, 5 or 10 μg of proteins of sample were loaded on 4-20% Mini-Protean TGX Precast Gels (Bio-Rad) and the transferred to Nitrocellulose membrane (Bio-Rad) using Trans-Blot Turbo System (Bio-Rad). We blocked the membrane during 1 h at room temperature with 10% Casein (Sigma-Aldrich) diluted in PBS (tablets, Sigma-Aldrich). After blocking we incubate with the primary appropriate antibody at 4° C. overnight. We clean the membranes with PBS-Tween 20 (0.1%) and then incubate during 2 h at room temperature with the appropriate peroxidase secondary antibody (Vector Labs). Each blot was developed using Clarity Western ECL Substrate (Biorad). The protein level, measured by Bradford assay (Thermo Scientific), was normalized correcting the protein level with β-Actin. The results were normalized to the highest concentration used (20 μM) in each experiment in order to normalize inflammatory response. We also used Western Blot to estimate the composition of the α-synuclein aggregates that we generated from monomeric α-synuclein.
Next, we wanted to assess the role of galectin-3 inhibition in α-synuclein-induced activation of microglial cells. To this end, microglial cells were pretreated with the galectin-3 inhibitor at different concentrations (5, 25, 50 and 100 μM), for 30 min, then the cells were washed to remove the inhibitor to further treat them with α-synuclein monomers or aggregates (20 μM) for 12 h whereafter the iNOS protein expression levels were analyzed. […] Indeed, more than 50% down regulation of iNOS expression was found at 50 and 100 μM inhibitor treatment.
To further test the role of galectin-3 in microglial activation, we decided to knockdown galectin-3 expression in BV2 cells using small interferring RNA (siRNA). Galectin-3 and siRNA negative control knocked-down cells were treated with α-synuclein aggregates (20 μM) for 12 h and their iNOS expression levels were compared using western blot analysis. […] Western blot analysis showing iNOS and β-actin protein levels.
For orientation: A western blot detects proteins with antibodies after separation by electrophoresis.

Data set [2] concerns BV2 microglial cells. The data set can be described thus: Phagocytic assay (uptake of IgG-FITC beads) in α-synuclein-activated BV2 microglia. Format: cell-based, Murine. The note with it: for phagocytic ability on adding galectin-3 protein: BV2 cells, 12 h. The procedure: We measure microglial phagocytosis using a phagocytosis assay kit (Cayman Chem, USA) according to the protocol provided by the manufacturer's. We plated 5×10^4 cells/well in 96 well plates for 12 h before treating the cells with α-synuclein 20 μM for additional 12 h. Thereafter IgG-FITC beads we added with or without galectin-3 inhibitor for 12 h. The phagocytic ability was analyzed by a fluorescent plate reader (FluoStar Optima, BMG, LabTech, Sweden).
To test the implication of galectin-3 on phagocytic ability of microglial cells in our model of α-synuclein induced activation, we pre-treated the cells with 100 μM of galectin-3 inhibitor for 30 min and subsequently treated them with α-synuclein aggregates or combining both for 12 h. Microglial cells activated with α-synuclein show high phagocytic activity (FIG. 4).

The subject of another data set is galectins. The note with it: compared with N-acetyllactosamine; cited from earlier work.

“Also recorded” adds a separate entry of the source.

For the molecule `OC[C@H]1O[C@@H](S[C@@H]2O[C@H](CO)[C@H](O)[C@H](n3cc(-c4cccc(F)c4)nn3)[C@H]2O)[C@H](O)[C@@H](n2cc(-c3cccc(F)c3)nn2)[C@H]1O` [TD139, Bis-{3-deoxy-3-[4-(3-fluorophenyl)-1H-1,2,3-triazol-1-yl]-β-D-galactopyranosyl} sulfane], the cell viability result with BV2 cells is recorded as “does not negatively affect cell viability”. The “down regulation of iNOS expression” value in the data set with BV2 microglial cells [1] (50 μM inhibitor, 30 min pre-treatment, 12 h) was “more than 50%”; with BV2 microglial cells [1] (100 μM inhibitor, 30 min pre-treatment, 12 h) it was “more than 50%”. In the data set on BV2 microglial cells [1] (inhibitor 5, 25, 50 and 100 μM, 30 min pre-treatment, aggregates 20 μM, 12 h), the “inhibition of iNOS expression induced by α-synuclein aggregates” value is reported as “significantly inhibited”. The “inhibition of iNOS expression induced by α-synuclein monomers” value was “not significantly inhibited” with BV2 microglial cells [1] (12 h) and “not to monomers” with BV2 microglial cells [1] (12 h, listed as galectin-3 inhibitor). Moreover, the “inflammatory response induced by α-synuclein” value in the data set on BV2 microglial cells [1] (summary statement, BV2 microglia) is reported as “significant reduction”. Besides, the phagocytic ability result in the data set with BV2 microglial cells [2] (100 μM inhibitor as 30 min pre-treatment only) is “couldn't find any difference”; in the data set on BV2 microglial cells [2] (100 μM inhibitor combined with α-synuclein aggregates 20 μM for 12 h) it was “reduced phagocytic ability; also recorded: robustly inhibited the phagocytosis”; in the data set on BV2 microglial cells [2] (100 μM inhibitor combined with α-synuclein aggregates 20 μM for 12 h, listed as galectin-3 inhibitor) it was “robustly reduced to control levels”.
For the molecule `OC[C@H]1O[C@@H](S[C@@H]2O[C@H](CO)[C@H](O)[C@H](O)[C@H]2O)[C@H](O)[C@@H](O)[C@H]1O` [thiodigalactoside], in the data set with galectins, the “efficiency as galectin inhibitor” value is listed as “approximately as efficient as N-acetyllactosamine”.
Regarding “galectin-3 protein: galectin-3 protein added to microglial cells in the phagocytic assay”, the “phagocytic ability on adding galectin-3 protein” value in the data set with BV2 microglial cells [2] was “increases the phagocytic ability to a similar extent as α-synuclein aggregates”; in the data set with BV2 microglial cells [2] (listed as galectin-3), “recover the phagocytic ability”.

The values are drawn from US20170095496A1, “GALACTOSIDE INHIBITORS FOR NEW USES” (GALECTO BIOTECH AB, priority 2014, published 2017).
